Assay results published in patent US20240122178A1, “CAFFEIC ACID-BASED COMPOSITE MATERIAL AND PREPARATION METHOD THEREOF” (ZHEJIANG UNIVERSITY, priority 2021, published 2024).

Assay: caffeic acid loading rate of carrier incubated with caffeic acid solution in ethanol
Assay type: physicochemical
Conditions: optimal loading conditions: molar ratio γ-cyclodextrin to caffeic acid 1:64, loading time 900 minutes, 40° C.
Experimental: In one embodiment, under the conditions of reaction temperature of 40° C. and reaction time of 900 minutes, the effects of different ratios of the cyclodextrin metal-organic framework material to caffeic acid (a molar ratio of γ-cyclodextrin in the cyclodextrin metal-organic framework material to caffeic acid is 1:4, 1:8, 1:32, 1:64 and 1:128, respectively) on the caffeic acid loading rate are compared. From the results, it can be seen that when the molar ratio of γ-cyclodextrin to caffeic acid in the cyclodextrin metal-organic framework composite is 1:4, the caffeic acid loading rate […]; with the increase of caffeic acid dosage, the caffeic acid loading rate gradually increases, and the increase of the loading rate is no longer obvious after increasing to 1:64. Therefore, the molar ratio of γ-cyclodextrin in the cyclodextrin metal-organic framework material to caffeic acid is selected from 1:4 to 1:128, further from 1:32 to 1:128, further from […], still further from 1: 60-70, and most preferably is 1:64.
In one embodiment, the effects of different incubating time (10, 20, 60, 180, 360, 720, 900, 2160 minutes) on the caffeic acid loading rate are compared under the conditions: the molar ratio of γ-cyclodextrin in the cyclodextrin metal-organic framework material to caffeic acid being 1:64 and the reaction temperature being 40° C. […]

caffeic acid loading rate: 7.28%
Structure (SMILES): OC[C@H]1O[C@@H]2O[C@H]3[C@H](O)[C@@H](O)[C@@H](O[C@H]4[C@H](O)[C@@H](O)[C@@H](O[C@H]5[C@H](O)[C@@H](O)[C@@H](O[C@H]6[C@H](O)[C@@H](O)[C@@H](O[C@H]7[C@H](O)[C@@H](O)[C@@H](O[C@H]8[C@H](O)[C@@H](O)[C@@H](O[C@H]9[C@H](O)[C@@H](O)[C@@H](O[C@H]1[C@H](O)[C@H]2O)O[C@@H]9CO)O[C@@H]8CO)O[C@@H]7CO)O[C@@H]6CO)O[C@@H]5CO)O[C@@H]4CO)O[C@@H]3CO [γ-cyclodextrin]
